In article PMC12010937, “Evaluation of FXR Activity in Pollutants Identified in Sewage Sludge and Subsequent in Vitro and in Vivo Characterization of Metabolic Effects of Triphenyl Phosphate” (Environmental Health Perspectives, 2025):
“And” between values parts separate entries of the source, which are not always exact repeats. Equal entries are not always repeated.

Assays:
[1] = system: FXR target genes and ceramide synthesis genes in ileum; experiment: qPCR of genes in mouse ileum; type: in vivo, C57BL/6N mice
Experimental: Male C57BL/6N mice (8 wk of age) were purchased from Beijing Vital River Laboratory Inc. and acclimated to the environment for 2 wk before they were used for experiments. The environment was maintained at 22°C, in a 12-h light/dark cycle with 50%–60% relative humidity and fed standard chow diets. Because the male mice are more sensitive to metabolic disease than female mice and the estrous cycle of female mice may induce variability to the metabolic phenotypes,[50] only male mice were used in this study. Animals were randomly assigned to control or TPHP treatment groups (five mice per group). Mice were exposed to corn oil (control) purchased from Sigma-Aldrich (C8267) or TPHP (dissolved in corn oil) at 10mg/kg or 50mg/kg body weight (BW) by daily oral gavage for 35 d. The administered volume was 5mL/kg BW. The TPHP corn oil solutions for administration were prepared by dissolving the TPHP in corn oil, and the solutions were stored at −20°C and freshly prepared each week. BW was measured every other day during the dosing period. At the end of experiments, the mice were anesthetized with isoflurane, then blood was collected from the retro-orbital sinus via orbital puncture, and then the mice were euthanized by cervical dislocation. The liver was isolated, weighted, and divided into three fractions: one fraction was fixed with 4% neutral-buffered formalin for Oil Red staining; another fraction was frozen in liquid nitrogen and stored at −80°C for the BA targeted analysis, lipidomic analysis, and qPCR analysis; the remaining fraction was embedded with 3% carboxymethylcellulose (CMC) for MSI analysis. The ileum was also isolated, weighted, and stored at −80°C for the BA targeted analysis and qRT-PCR analysis. Cecal contents were collected from the cecum of mice for the 16S rRNA gene sequencing analysis. Animal study protocols were approved by the Animal Care and Use Committee of Peking University (approval number: Urban-WanY-1).
Total RNA was extracted from cells or mice tissues (liver and ileum) using the Total RNA kit (Tiangen Biotech), and concentration and quality of the RNA were determined using a SMA4000 Nanodrop spectrophotometer (Merinton). Then, the RNA was reverse transcribed into cDNA by HiScript III RT SuperMix for qPCR (Vazyme). In addition, qPCR was performed in the Mx3005P real-time PCR system (Agilent Technologies) with the ChamQ SYBR qPCR Master Mix Kit (Vazyme). Reactions were carried out for 5 min at 95°C, followed by 40 cycles of two-step PCR for 10 s at 95°C and 30 s at 60°C. The relative RNA expression levels of the target genes were normalized to GAPDH using the 2^−ΔΔCt method.

[2] = target: T1, human FXR-LBD (6His-FXR-LBD) (Homo sapiens, UniProt Q96RI1); experiment: Surface plasmon resonance (SPR) analysis; type: binding
T1 construct: human FXR (residues 243–472) was expressed and purified as an amino-terminal 6His fusion protein; made in house; host or cells: E. coli BL21(DE3)
T1 sequence (Q96RI1 243-472 isoform Q96RI1-2): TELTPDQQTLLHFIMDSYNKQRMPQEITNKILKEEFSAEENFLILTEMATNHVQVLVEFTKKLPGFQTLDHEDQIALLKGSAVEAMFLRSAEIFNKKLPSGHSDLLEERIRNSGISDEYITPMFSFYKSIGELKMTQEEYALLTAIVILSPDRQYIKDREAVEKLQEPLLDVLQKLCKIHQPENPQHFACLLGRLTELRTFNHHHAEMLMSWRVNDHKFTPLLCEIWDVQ
Experimental: . First, 40μg/mL purified 6His-FXR-LBD protein was immobilized on a CM5 sensor chip (29149603; Cytiva) by amine coupling reaction. In detail, the carboxymethyl dextran surface of the CM5 sensor chip was activated by injecting a 1:1 mixture of 0.4M 1-ethyl-3-(3-dimethylaminopropyl)-carbodiimide (EDC) and 0.1M N-hydroxysuccinimide (NHS) for 7 min, then the 6His-FXR-LBD protein was injected and immobilized on the activated surface for 5 min, and subsequently the excess activated groups on the surface were deactivated by 1.0M ethanolamine (pH 8.5). Then, seven different concentrations of compounds (including 3.125μM , 6.25μM , 12.5μM , 25μM , 50μM , 100μM , and 200μM ) were prepared with HBS-EP buffer [ 10 mM HEPES, 150 mM NaCl, 3 mM EDTA, 0.005% (v/v) surfactant P20, pH 7.4], and the final DMSO concentration was adjusted to 2%. The samples were injected into the chip at a flow rate of 30μL/min for 60 s, followed by dissociation for 120 s at 25°C. One of the flow cells on the chip without FXR-LBD protein was used as a negative control. The responses were recorded during the experiment, and the sensorgrams were obtained by subtracting the binding response of the negative control. The equilibrium dissociation constant (KD) was determined by steady-state fitting mode with Biacore T200 Evaluation Software (version 3.2; Cytiva).

O=P(Oc1ccccc1)(Oc1ccccc1)Oc1ccccc1 [TPHP, triphenyl phosphate]
Relative mRNA expression of Asbt in ileum ([1]; TPHP-H: 50 mg/kg, 35 d): 1.65 fold changes and 1.26 fold changes and 1.68 fold changes
Relative mRNA expression of Cers2 in ileum ([1]; TPHP-H: 50 mg/kg, 35 d): 0.89 fold changes and 1.24 fold changes and 1.27 fold changes
Relative mRNA expression of Cers4 in ileum ([1]; TPHP-H: 50 mg/kg, 35 d): 1.11 fold changes and 0.99 fold changes and 1.05 fold changes
Relative mRNA expression of Cers6 in ileum ([1]; TPHP-H: 50 mg/kg, 35 d): 0.73 fold changes and 1.06 fold changes and 0.97 fold changes
Relative mRNA expression of Degs1 in ileum ([1]; TPHP-H: 50 mg/kg, 35 d): 0.95 fold changes and 0.99 fold changes and 1.02 fold changes
Relative mRNA expression of Degs2 in ileum ([1]; TPHP-H: 50 mg/kg, 35 d): 1.14 fold changes and 1.06 fold changes and 1.21 fold changes
Relative mRNA expression of Ibabp in ileum ([1]; TPHP-H: 50 mg/kg, 35 d): 0.78 fold changes and 0.85 fold changes and 0.92 fold changes
Relative mRNA expression of Ostα in ileum ([1]; TPHP-H: 50 mg/kg, 35 d): 0.84 fold changes and 0.68 fold changes and 0.79 fold changes
Relative mRNA expression of Shp in ileum ([1]; TPHP-H: 50 mg/kg, 35 d): 0.10 fold changes and 0.18 fold changes and 0.19 fold changes
Relative mRNA expression of Smpd2 in ileum ([1]; TPHP-H: 50 mg/kg, 35 d): 1.21 fold changes and 1.23 fold changes and 0.91 fold changes
Relative mRNA expression of Smpd3 in ileum ([1]; TPHP-H: 50 mg/kg, 35 d): 0.99 fold changes and 0.93 fold changes and 1.32 fold changes
Relative mRNA expression of Smpd4 in ileum ([1]; TPHP-H: 50 mg/kg, 35 d): 0.86 fold changes and 0.81 fold changes and 0.93 fold changes
Relative mRNA expression of Sptlc1 in ileum ([1]; TPHP-H: 50 mg/kg, 35 d): 1.12 fold changes and 0.98 fold changes and 0.80 fold changes
Relative mRNA expression of Sptlc2 in ileum ([1]; TPHP-H: 50 mg/kg, 35 d): 1.09 fold changes and 1.01 fold changes and 0.85 fold changes
Relative mRNA expression of Asbt in ileum ([1]; TPHP-L: 10 mg/kg, 35 d): 1.43 fold changes and 1.04 fold changes and 1.42 fold changes
Relative mRNA expression of Cers2 in ileum ([1]; TPHP-L: 10 mg/kg, 35 d): 1.06 fold changes and 1.32 fold changes and 1.08 fold changes
Relative mRNA expression of Cers4 in ileum ([1]; TPHP-L: 10 mg/kg, 35 d): 1.04 fold changes and 1.11 fold changes and 1.40 fold changes
Relative mRNA expression of Cers6 in ileum ([1]; TPHP-L: 10 mg/kg, 35 d): 0.77 fold changes and 1.22 fold changes and 1.15 fold changes
Relative mRNA expression of Degs1 in ileum ([1]; TPHP-L: 10 mg/kg, 35 d): 1.06 fold changes and 1.19 fold changes and 1.18 fold changes
Relative mRNA expression of Degs2 in ileum ([1]; TPHP-L: 10 mg/kg, 35 d): 1.13 fold changes and 0.96 fold changes and 1.41 fold changes
Relative mRNA expression of Fgf15 in ileum ([1]; TPHP-L: 10 mg/kg, 35 d): 0.80 fold changes and 0.54 fold changes and 0.50 fold changes
Relative mRNA expression of Ibabp in ileum ([1]; TPHP-L: 10 mg/kg, 35 d): 0.79 fold changes and 0.87 fold changes and 0.75 fold changes
Relative mRNA expression of Ostα in ileum ([1]; TPHP-L: 10 mg/kg, 35 d): 0.81 fold changes and 0.96 fold changes and 0.82 fold changes
Relative mRNA expression of Shp in ileum ([1]; TPHP-L: 10 mg/kg, 35 d): 0.33 fold changes and 0.38 fold changes and 0.36 fold changes
Relative mRNA expression of Smpd2 in ileum ([1]; TPHP-L: 10 mg/kg, 35 d): 1.01 fold changes and 1.00 fold changes and 1.07 fold changes
Relative mRNA expression of Smpd3 in ileum ([1]; TPHP-L: 10 mg/kg, 35 d): 1.11 fold changes and 1.07 fold changes and 1.10 fold changes
Relative mRNA expression of Smpd4 in ileum ([1]; TPHP-L: 10 mg/kg, 35 d): 0.84 fold changes and 0.96 fold changes
Relative mRNA expression of Sptlc1 in ileum ([1]; TPHP-L: 10 mg/kg, 35 d): 0.87 fold changes and 1.15 fold changes and 0.75 fold changes
Relative mRNA expression of Sptlc2 in ileum ([1]; TPHP-L: 10 mg/kg, 35 d): 0.89 fold changes and 1.15 fold changes and 1.13 fold changes
Expression of ceramide synthesis genes in the ileum vs control (in words) ([1]; after TPHP exposure): not significantly different
Response (RU) ([2]; 3.13 μM TPHP): 1.43 RU
Response (RU) ([2]; 6.25 μM TPHP): 1.99 RU
Response (RU) ([2]; 12.5 μM TPHP): 3.33 RU
Response (RU) ([2]; 25 μM TPHP): 6.18 RU
Response (RU) ([2]; 50 μM TPHP): 11.56 RU
Response (RU) ([2]; 100 μM TPHP): 20.62 RU
Response (RU) ([2]; 200 μM TPHP): 25.20 RU
